Reference: PMC9851200, “Multiparameter phenotypic screening for endogenous TFEB and TFE3 translocation identifies novel chemical series modulating lysosome function” (Autophagy, 2022)
Entries after “also recorded” stand apart in the source; their conditions may differ. Read-outs that look alike come from different tables or passages of the source.

Columns and labels:
TLK2 = target: T1, TLK2 (Homo sapiens, UniProt Q86UE8); experiment: KiNativ in-cell kinase binding, TLK2; details: SH-SY5Y cells
T1 construct: endogenous in cells; host or cells: SH-SY5Y
T1 sequence (Q86UE8 whole entry): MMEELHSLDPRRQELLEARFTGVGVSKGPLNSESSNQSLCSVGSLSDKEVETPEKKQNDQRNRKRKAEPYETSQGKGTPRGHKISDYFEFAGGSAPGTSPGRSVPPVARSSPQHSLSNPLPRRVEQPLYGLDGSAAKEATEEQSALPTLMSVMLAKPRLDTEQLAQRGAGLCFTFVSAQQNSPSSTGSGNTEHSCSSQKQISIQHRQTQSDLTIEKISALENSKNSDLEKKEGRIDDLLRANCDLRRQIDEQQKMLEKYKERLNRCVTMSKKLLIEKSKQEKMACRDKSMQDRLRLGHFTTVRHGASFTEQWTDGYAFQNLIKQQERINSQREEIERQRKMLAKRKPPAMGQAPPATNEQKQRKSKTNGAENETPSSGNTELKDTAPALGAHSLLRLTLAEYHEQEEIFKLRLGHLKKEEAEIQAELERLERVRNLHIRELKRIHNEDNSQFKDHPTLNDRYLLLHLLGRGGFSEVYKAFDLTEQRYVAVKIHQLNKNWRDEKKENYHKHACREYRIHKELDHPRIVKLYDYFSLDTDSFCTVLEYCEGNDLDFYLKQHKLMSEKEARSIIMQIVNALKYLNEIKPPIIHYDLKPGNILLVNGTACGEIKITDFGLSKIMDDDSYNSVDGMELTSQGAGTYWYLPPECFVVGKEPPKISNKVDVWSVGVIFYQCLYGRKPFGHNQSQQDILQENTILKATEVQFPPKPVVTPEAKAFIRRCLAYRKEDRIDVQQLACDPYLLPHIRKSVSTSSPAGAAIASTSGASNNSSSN
Source text: (§1) As KINOMEscan is an in vitro assay, and as different cell types have variable kinase expression profiles we sought to determine the kinase binding profile in our SH-SY5Y TFEB-relocalization cell model. […] Bound kinases were pulled down and analyzed by mass spectrometry to determine the in situ kinase binding profile for each compound.

SRPK1 = target: T2, SRPK1 (Homo sapiens, UniProt Q96SB4); experiment: KiNativ in-cell kinase binding, SRPK1; details: SH-SY5Y cells, Labeling Site Lys2
T2 construct: endogenous in cells; host or cells: SH-SY5Y
T2 sequence (Q96SB4 whole entry): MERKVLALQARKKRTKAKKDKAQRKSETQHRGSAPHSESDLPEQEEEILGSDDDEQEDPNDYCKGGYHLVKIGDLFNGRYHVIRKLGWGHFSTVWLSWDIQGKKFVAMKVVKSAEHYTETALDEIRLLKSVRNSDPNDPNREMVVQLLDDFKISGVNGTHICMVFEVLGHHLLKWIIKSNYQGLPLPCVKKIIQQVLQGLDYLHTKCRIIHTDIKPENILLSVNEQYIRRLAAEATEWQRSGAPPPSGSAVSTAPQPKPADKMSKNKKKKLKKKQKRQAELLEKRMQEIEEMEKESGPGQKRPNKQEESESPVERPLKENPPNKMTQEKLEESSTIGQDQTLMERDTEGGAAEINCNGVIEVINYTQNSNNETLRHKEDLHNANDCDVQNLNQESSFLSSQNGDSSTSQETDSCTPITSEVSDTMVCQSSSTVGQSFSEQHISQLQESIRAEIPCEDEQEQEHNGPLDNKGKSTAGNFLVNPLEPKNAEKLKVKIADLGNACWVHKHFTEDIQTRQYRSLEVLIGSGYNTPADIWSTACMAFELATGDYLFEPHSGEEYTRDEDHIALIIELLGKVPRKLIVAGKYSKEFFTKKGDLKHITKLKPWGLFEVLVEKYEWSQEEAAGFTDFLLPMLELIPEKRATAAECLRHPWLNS
Source text: as §1

TLK1 = target: T3, TLK1 (Homo sapiens, UniProt Q9UKI8); experiment: KiNativ in-cell kinase binding, TLK1; details: SH-SY5Y cells, Labeling Site Lys2
T3 construct: endogenous in cells; host or cells: SH-SY5Y
T3 sequence (Q9UKI8 whole entry): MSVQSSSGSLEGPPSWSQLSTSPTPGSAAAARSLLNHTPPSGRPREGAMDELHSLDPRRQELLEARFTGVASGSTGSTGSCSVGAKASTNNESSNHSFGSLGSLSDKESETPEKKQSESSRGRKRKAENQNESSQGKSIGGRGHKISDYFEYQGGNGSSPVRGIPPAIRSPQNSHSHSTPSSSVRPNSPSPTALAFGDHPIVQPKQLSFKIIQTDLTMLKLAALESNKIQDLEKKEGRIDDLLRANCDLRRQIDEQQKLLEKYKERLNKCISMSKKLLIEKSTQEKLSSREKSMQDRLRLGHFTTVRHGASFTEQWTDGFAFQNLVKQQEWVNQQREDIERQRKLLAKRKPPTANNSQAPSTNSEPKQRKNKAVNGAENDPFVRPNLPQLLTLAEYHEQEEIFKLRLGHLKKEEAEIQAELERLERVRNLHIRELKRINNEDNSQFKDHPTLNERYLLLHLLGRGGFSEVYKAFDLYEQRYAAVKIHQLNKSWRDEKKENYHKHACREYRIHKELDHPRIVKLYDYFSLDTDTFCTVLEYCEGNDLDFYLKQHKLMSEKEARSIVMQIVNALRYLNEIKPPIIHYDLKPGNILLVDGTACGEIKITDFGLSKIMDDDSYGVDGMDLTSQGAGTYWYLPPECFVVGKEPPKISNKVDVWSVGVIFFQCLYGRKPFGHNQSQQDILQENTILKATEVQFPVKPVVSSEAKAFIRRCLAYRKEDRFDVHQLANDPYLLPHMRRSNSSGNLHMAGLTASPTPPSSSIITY
Source text: as §1

[1] = target: T4, cellular kinases of SH-SY5Y cells (Homo sapiens, UniProt Q9NRH2); experiment: biochemical; type: binding; details: 2µM, SH-SY5Y cells, read-out: KiNativ in-cell binding, % Inhibition, SNRK
T4 construct: endogenous in cells; host or cells: SH-SY5Y
T4 sequence (Q9NRH2 whole entry): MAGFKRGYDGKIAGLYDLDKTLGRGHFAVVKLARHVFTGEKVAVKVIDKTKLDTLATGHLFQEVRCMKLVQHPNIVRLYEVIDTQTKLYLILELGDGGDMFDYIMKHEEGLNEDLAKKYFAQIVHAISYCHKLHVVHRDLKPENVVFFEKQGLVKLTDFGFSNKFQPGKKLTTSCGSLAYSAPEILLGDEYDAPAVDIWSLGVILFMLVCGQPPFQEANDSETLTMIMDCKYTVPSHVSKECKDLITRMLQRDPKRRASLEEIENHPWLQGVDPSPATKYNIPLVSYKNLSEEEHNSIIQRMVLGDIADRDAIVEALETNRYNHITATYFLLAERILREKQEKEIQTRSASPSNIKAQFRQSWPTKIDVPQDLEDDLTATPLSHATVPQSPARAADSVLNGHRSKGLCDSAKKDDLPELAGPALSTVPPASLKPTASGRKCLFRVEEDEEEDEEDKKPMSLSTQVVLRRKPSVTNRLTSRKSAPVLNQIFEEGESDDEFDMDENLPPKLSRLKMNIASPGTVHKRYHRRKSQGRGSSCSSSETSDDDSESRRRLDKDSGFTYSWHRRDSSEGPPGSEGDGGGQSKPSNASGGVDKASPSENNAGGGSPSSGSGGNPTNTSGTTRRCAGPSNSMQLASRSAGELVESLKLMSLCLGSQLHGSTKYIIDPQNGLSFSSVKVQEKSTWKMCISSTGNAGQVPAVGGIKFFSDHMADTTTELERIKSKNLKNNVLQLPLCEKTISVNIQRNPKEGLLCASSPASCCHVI
Source text: as §1

TFE3 = TFE3 translocation in CRISPRi PRKD2 or PRKD3 knockdown SH-SY5Y cells; type: cell-based; details: SH-SY5Y dCas9-KRAB, Scr, PRKD2 or PRKD3 targeting guides, increasing concentrations
PRKD3 = target: T5, PRKD3 (Homo sapiens, UniProt O94806); experiment: KiNativ in-cell kinase binding, PRKD3; parameters: endogenous in cells; host or cells: SH-SY5Y; details: for inhibition at 2 µM: SH-SY5Y cells
T5 sequence (O94806 1-890): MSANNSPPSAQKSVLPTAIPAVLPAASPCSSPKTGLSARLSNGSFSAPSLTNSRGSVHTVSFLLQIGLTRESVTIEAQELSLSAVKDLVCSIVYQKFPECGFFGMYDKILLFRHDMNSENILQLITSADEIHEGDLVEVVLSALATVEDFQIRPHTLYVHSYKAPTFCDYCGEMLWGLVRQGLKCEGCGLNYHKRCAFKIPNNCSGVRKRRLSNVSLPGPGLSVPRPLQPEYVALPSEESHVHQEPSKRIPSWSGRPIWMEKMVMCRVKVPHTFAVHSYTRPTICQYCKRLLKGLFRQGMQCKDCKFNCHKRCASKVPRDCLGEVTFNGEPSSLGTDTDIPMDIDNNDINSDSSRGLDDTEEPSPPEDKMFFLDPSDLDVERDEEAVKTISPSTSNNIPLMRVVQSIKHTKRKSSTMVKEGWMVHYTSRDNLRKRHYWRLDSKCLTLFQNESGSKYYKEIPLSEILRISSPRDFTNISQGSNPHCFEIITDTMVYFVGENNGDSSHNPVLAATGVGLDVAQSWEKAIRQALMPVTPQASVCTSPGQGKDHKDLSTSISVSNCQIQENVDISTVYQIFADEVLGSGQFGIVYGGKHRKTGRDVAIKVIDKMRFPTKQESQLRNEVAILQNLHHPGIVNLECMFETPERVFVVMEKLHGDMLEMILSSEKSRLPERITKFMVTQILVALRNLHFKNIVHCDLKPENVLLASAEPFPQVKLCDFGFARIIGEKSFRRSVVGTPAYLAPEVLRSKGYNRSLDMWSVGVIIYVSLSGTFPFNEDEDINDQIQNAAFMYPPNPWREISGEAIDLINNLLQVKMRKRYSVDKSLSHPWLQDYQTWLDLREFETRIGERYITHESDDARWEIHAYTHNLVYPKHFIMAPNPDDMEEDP
Source text: as §1

PRKD1 = target: T6, PRKD1 (Homo sapiens, UniProt Q15139); experiment: PRKD1 binding KD (Table S3); details: relation sign
T6 sequence (Q15139 1-912): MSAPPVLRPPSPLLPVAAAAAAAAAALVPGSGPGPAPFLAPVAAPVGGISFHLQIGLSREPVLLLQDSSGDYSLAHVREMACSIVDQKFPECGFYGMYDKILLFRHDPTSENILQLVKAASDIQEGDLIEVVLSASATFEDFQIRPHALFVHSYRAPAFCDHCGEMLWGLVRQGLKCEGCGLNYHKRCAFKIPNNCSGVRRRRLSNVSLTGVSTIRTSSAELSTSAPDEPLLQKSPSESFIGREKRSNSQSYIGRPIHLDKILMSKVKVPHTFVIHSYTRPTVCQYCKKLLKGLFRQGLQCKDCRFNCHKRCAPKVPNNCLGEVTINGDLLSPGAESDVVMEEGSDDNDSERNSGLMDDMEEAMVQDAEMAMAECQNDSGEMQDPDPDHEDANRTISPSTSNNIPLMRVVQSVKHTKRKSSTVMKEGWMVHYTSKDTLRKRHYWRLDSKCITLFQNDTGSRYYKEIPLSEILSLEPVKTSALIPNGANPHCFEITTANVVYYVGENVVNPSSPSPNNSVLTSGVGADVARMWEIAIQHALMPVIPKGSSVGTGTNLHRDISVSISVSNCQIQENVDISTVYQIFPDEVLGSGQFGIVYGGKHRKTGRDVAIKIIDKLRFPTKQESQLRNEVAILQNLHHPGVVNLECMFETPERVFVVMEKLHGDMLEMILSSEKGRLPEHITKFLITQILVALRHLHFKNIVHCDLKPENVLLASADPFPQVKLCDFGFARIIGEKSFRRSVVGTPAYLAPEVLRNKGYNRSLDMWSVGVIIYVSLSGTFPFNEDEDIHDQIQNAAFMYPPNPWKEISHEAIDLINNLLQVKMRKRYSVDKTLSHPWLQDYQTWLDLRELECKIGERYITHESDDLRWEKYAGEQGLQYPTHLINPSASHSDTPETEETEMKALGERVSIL
Source text: Supplement KAUP_A_2095834_SM5251.zip/Supplementary Tables R7.xlsx, sheet "Table S3 - Analogues"

MAPK10/JNK3 = MAPK10/JNK3 (Homo sapiens, UniProt P53779); type: binding
Sequence of MAPK10/JNK3 (P53779 whole entry): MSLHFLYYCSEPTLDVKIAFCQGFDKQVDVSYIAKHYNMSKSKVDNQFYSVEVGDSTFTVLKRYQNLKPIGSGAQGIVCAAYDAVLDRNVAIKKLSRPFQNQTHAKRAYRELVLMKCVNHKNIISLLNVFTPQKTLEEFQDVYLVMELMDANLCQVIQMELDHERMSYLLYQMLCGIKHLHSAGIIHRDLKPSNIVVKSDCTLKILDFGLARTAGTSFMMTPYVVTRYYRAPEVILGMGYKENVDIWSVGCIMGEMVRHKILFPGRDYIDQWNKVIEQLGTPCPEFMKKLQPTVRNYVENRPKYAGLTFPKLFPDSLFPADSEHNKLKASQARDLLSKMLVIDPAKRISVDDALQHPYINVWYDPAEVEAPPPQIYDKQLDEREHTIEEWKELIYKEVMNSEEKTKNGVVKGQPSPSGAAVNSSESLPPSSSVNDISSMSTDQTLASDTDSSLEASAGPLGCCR

MAPK9/JNK2 = MAPK9/JNK2 (Homo sapiens, UniProt P45984); type: binding
Sequence of MAPK9/JNK2 (P45984 whole entry): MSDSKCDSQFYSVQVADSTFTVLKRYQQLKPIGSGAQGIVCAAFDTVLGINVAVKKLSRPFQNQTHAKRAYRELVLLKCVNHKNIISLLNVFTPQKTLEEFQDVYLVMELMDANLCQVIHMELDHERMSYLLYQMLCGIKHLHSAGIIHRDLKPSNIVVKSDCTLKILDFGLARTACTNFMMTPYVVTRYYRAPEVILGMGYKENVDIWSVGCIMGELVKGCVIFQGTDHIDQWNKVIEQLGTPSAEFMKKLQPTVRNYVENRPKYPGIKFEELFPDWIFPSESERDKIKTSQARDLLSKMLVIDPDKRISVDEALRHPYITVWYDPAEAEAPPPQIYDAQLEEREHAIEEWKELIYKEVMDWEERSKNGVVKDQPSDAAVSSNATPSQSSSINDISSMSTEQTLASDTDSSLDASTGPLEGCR

Question: Which results are given for Cc1cccc(-c2nc(Nc3ccc4ncsc4c3)c3ccccc3n2)n1 [NK140]?
Answer: inhibition at 2 µM (TLK2; Labeling Site Lys1, YVAVKIHQLNK): 52.7%; inhibition at 2 µM (TLK2; Labeling Site Lys2, YLNEIKPPIIHYDLKPGNILLVNGTACGEIK): 50%; inhibition at 2 µM (SRPK1): 67.9%; inhibition at 2 µM (TLK1): 48.9%; inhibition at 2 µM ([1]; Labeling Site Lys1, VAVKVIDK): 37.3%; inhibition at 2 µM ([1]; Labeling Site Lys2, DLKPENVVFFEK): 36.3%; TFE3 nuclear translocation in response to compound after PRKD knockdown (in words) (TFE3): no increased activity in the TFE3 translocation assay; also recorded: not altered by knockdown of PRKD; inhibition at 2 µM (PRKD3; Labeling Site Lys1, DVAIKVIDK): 71.5%; inhibition at 2 µM (PRKD3; Labeling Site Lys2, NIVHCDLKPENVLLASAEPFPQVK): 78.5%; KiNativ binding of PRKD3 (in words) (PRKD3; SH-SY5Y cells treated 2 h): bound

Question: Which Kd (PRKD1) does the source give for Cc1cccc(-c2nc(Nc3ccncc3)c3ccccc3n2)n1 [NK215] here?
Answer: Its Kd is 13 nM.

Question: Cc1cccc(-c2nc(N(C)c3ccc4ncsc4c3)c3ccccc3n2)n1 [NK-161] was tested. Which “KINOMEscan MAPK10/JNK3” value (MAPK10/JNK3) did it give?
Answer: Its value is 16.

Question: What about the “KINOMEscan MAPK9/JNK2” value (MAPK9/JNK2) of the same compound?
Answer: Its value is 7.
